Read-outs that look alike come from different tables or passages of the source. Blank lines part the entries; values can stand above or below the molecule they belong to.
Columns and labels:
[1] = target: T1, APN (Microsomal Leucine aminopeptidase from porcine kidney EC 3.4.11.2) (Sus scrofa, UniProt P15145); assay: APN inhibitory activity, spectrophotometry with L-leucine-p-nitroanilide; format: biochemical
T1 construct: Microsomal Leucine aminopeptidase from porcine kidney EC 3.4.11.2, Type IV-S, ammonium sulfate suspension; purchased Sigma-Aldrich; host or cells: porcine kidney (tissue-derived, microsomal)
T1 sequence (P15145 1-963): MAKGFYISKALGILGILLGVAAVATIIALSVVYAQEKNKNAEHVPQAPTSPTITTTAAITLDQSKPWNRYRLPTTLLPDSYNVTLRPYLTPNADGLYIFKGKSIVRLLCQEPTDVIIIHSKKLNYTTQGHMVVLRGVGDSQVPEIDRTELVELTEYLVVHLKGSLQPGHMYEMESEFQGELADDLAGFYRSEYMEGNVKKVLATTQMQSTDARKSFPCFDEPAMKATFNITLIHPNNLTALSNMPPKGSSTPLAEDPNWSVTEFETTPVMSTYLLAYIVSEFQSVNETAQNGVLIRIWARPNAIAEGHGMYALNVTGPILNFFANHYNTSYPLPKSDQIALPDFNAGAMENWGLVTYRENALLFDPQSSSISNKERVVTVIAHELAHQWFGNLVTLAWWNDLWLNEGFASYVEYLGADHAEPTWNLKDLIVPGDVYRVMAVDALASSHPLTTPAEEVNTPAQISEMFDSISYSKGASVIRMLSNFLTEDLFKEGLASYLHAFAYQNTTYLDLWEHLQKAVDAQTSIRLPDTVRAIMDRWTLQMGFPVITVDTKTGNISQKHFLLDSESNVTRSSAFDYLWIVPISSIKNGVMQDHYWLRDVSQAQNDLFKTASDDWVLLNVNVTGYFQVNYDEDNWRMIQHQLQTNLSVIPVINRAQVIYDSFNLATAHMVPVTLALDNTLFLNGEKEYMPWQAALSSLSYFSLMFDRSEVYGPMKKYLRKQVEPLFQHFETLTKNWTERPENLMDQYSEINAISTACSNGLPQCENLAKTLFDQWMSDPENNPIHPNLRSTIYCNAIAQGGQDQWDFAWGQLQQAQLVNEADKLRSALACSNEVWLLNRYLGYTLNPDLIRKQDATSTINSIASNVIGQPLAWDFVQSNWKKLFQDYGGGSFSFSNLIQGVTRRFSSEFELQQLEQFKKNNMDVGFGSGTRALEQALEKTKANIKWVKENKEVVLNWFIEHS
Experimental: APN inhibitory activity was determined using a standardized spectrophotometry protocol using L-leucine-p-nitroanilide as a chromogenic substrate for APN. Measurements were performed in triplicate at 405 nm at a Cytation 3 well-plate reader.
In some compounds, solubility problems occurred, which complicated the inhibition activity determination. We overcame these either by the use of cosolvents or by an alternative HPLC approach. The details are summarized in the Supplementary Materials.
IC50 values against enzyme APN were determined using L-Leucine-p-nitroanilide (Sigma-Aldrich, Darmstadt, Germany) as the substrate and Microsomal Leucine aminopeptidase from porcine kidney EC 3.4.11.2, Type IV-S, ammonium sulfate suspension, 10–40 units/mg protein (Sigma-Aldrich, Darmstadt, Germany). The assay was performed by a Cytation 3 Cell Imaging Multi-Mode Reader (BioTek Instruments, Inc., Winooski, VT, USA) with appropriate Gen-5 software in 96-well plates. A 0.02 mol/L TRIS-HCl buffer solution at pH 7.5 was used as the assay buffer. All tested compounds were dissolved in TRIS-HCl buffer solution and compounds with poor solubility were dissolved in a small amount of DMSO or NMP used as a cosolvent. The assay mixture, which contained a variable amount of inhibitor solution (from 0 up to 80 μL), 10 μL of the enzyme solution, 5 μL of the substrate solution, and the assay buffer adjusted to 200 μL, was incubated at 37 °C for 40 min with short orbital shaking for 10 s. The hydrolysis of the substrate was monitored by the optical photometric method of absorbance in the visible and ultraviolet regions at a wavelength of 405 nm. The enzyme activity inhibitory rate was calculated from the measures of absorbance. The results of the 50% inhibitory activity of the enzyme (IC50) were determined through a regression analysis of the concentration/absorbance data by GraFit 5 software (Erithacus Software Ltd., East Grinstead, UK).

[2] = test system: MCF-7 cells; assay: WST-1 analysis of cell proliferation, MCF-7; format: cell-based, human; details: for Proliferation of control: 48 h
Experimental: (§1) The results are shown in Table 4, Figure 2, and the Supplementary Materials.
(§2) A human monocytic leukemia cell line (THP-1), human breast adenocarcinoma cells (MCF-7), and human prostate cancer (DU-145) cell line were obtained from ATCC. THP-1 and DU-145 cells were cultivated in an RPMI 1640 culture medium and MCF-7 cells were cultivated in a DMEM medium, both supplemented with the antibiotic solution (100 U/mL of penicillin, 100 µg/mL of streptomycin) and 10% FBS. Cells were maintained in a humidified incubator with 5% CO2 at 37 °C and were regularly tested for the presence of mycoplasma contamination.
(§3) THP-1, MCF-7, and DU-145 cells were seeded in 96-well plates. Adherent cell lines were allowed to attach to the wells for 24 h. Cells were then treated with various concentrations of tested compounds to reach the final concentrations ranging between 1 µM and 100 µM and were incubated for 48 h. Cell proliferation was determined using Cell Proliferation Reagent WST-1 (2-(4-iodophenyl)-3-(4-nitrophenyl)-5-(2,4-disulfophenyl)-2H-tetrazolium) (Roche Diagnostics, Mannheim, Germany), as previously described. WST-1 analysis was performed in three independent experiments, with each condition tested in triplicate. The IC50 values were determined using the nonlinear regression four-parameter logistic model using GraphPad Prism 5.00 software (GraphPad Software, San Diego, CA, USA). Statistical significance between the values was assessed by one-way analysis of variance (ANOVA) paired with Dunnett’s post hoc test using GraphPad Prism 5.00 software (GraphPad Software, San Diego, CA, USA) at levels of * p < 0.05, ** p < 0.01, and *** p < 0.001.

[3] = test system: DU-145 cells; assay: WST-1 analysis of cell proliferation, DU-145; format: cell-based, human; details: for Proliferation of control: 48 h
Experimental: as §1, §2, §3

[4] = test system: THP-1 cells; assay: WST-1 analysis of cell proliferation, THP-1; format: cell-based, human; details: for Proliferation of control: 48 h
Experimental: as §1, §2, §3

[5] = TRIS-HCl buffer pH 7.5, 37 °C, 40 min, no cosolvent noted, read-out: IC50 Experimental
[6] = NMP as a cosolvent, read-out: IC50 Experimental
[7] = logarithm of IC50 in µmol/L, read-out: Log IC50 Experimental (converted)
[8] = DMSO as a cosolvent, read-out: IC50 Experimental

- IC50 [1, 5]: 778 µM
SMILES: CC(=NNC(N)=S)c1ccccc1NC(=O)CN1CCCCC1 [22-6-1]

- IC50 [1, 5]: 173 µM
SMILES: CC(=O)c1ccc(NC(=O)CN2CCCCC2)cc1 [14-6-1]

- IC50 [1, 6]: 1680 µM
- IC50 [1, 7]: 1680 µM
SMILES: CCCCN(CCCC)CC(=O)Nc1ccc(C(C)=NNC(N)=S)cc1 [24-4-1]

SMILES: CC(=O)c1ccc(NC(=O)CN2CCN(Cc3ccccc3)CC2)cc1 [14-10-1]
- IC50 [1, 8]: 427 µM

- IC50 [1, 5]: 1270 µM
- IC50 [1, 7]: 1270 µM
SMILES: CCCN(CCC)CC(=O)Nc1ccc(C(C)=NNC(N)=S)cc1 [24-3-1]

- IC50 [1, 8]: 366 µM
- IC50 [1, 7]: 366 µM
SMILES: CCN(CC)CC(=O)Nc1ccc(C(C)=O)cc1 [14-2-1]

- IC50 [1, 6]: 1550 µM
- IC50 [1, 7]: 1550 µM
SMILES: CC(=NNC(N)=S)c1ccc(NC(=O)CN2CCCCC2)cc1 [24-6-1]

- IC50 [1, 5]: 425 µM
SMILES: CC(=O)c1ccc(NC(=O)CN2CCOCC2)cc1 [14-8-1]

- IC50 ([2]; Homo sapiens, MCF7, MCF-7, 48 h incubation): > 100 µM
- IC50 [1, 5]: 18.4 µM
- IC50 [1, 7]: 18.4 µM
- IC50 ([3]; Homo sapiens, DU-145, 48 h incubation): > 100 µM
- IC50 ([4]; Homo sapiens, THP-1, 48 h incubation): > 100 µM
SMILES: CC(=NNC(N)=O)c1ccc(NC(=O)CN2CCCCC2)cc1 [34-6-1, 4-[2-(piperidine-1-yl)acetamido]acetophenone semicarbazone]
- Proliferation of control ([2]; MCF-7, 1 μmol/l): 100.09%
- Proliferation of control ([2]; MCF-7, 5 μmol/l): 96.80%
- Proliferation of control ([2]; MCF-7, 10 μmol/l): 97.62%
- Proliferation of control ([2]; MCF-7, 30 μmol/l): 96.30%
- Proliferation of control ([2]; MCF-7, 50 μmol/l): 99.57%
- Proliferation of control ([2]; MCF-7, 75 μmol/l): 85.41%
- Proliferation of control ([2]; MCF-7, 100 μmol/l): 81.17%
- Proliferation of control ([3]; DU-145, 1 μmol/l): 98.33%
- Proliferation of control ([3]; DU-145, 5 μmol/l): 98.26%
- Proliferation of control ([3]; DU-145, 10 μmol/l): 97.24%
- Proliferation of control ([3]; DU-145, 30 μmol/l): 97.25%
- Proliferation of control ([3]; DU-145, 50 μmol/l): 96.59%
- Proliferation of control ([3]; DU-145, 75 μmol/l): 99.61%
- Proliferation of control ([3]; DU-145, 100 μmol/l): 99.25%
- antiproliferative effect (in words) ([3]; DU-145, no APN expression): did not affect proliferation at all
- Proliferation of control ([4]; THP-1, 1 μmol/l): 97.78%
- Proliferation of control ([4]; THP-1, 5 μmol/l): 97.58%
- Proliferation of control ([4]; THP-1, 10 μmol/l): 93.87%
- Proliferation of control ([4]; THP-1, 30 μmol/l): 86.64%
- Proliferation of control ([4]; THP-1, 50 μmol/l): 73.78%
- Proliferation of control ([4]; THP-1, 75 μmol/l): 71.38%
- Proliferation of control ([4]; THP-1, 100 μmol/l): 69.17%

- IC50 [1, 5]: 44.1 µM
- IC50 [1, 7]: 44.1 µM
SMILES: CC(=NNC(N)=S)c1ccc(NC(=O)CN2CCCCCC2)cc1 [24-7-1]

- IC50 [1, 7]: 6.79 µM
SMILES: CC(=NNC(N)=S)c1ccc(NC(=O)CN2CCOCC2)cc1 [24-8-1, 4-[(morpholine-4-yl)acetamido]acetophenone thiosemicarbazone]

- IC50 [1, 6]: 35.6 µM
- IC50 [1, 7]: 35.6 µM
SMILES: CC(=NNC(N)=S)c1ccc(NC(=O)CN2CCCC2)cc1 [24-5-1]

- IC50 [1, 5]: 169 µM
- IC50 [1, 7]: 169 µM
SMILES: CC(=NNC(N)=S)c1ccccc1NC(=O)CN1CCCCCC1 [22-7-1]

- IC50 [1, 5]: 1640 µM
- IC50 [1, 7]: 1640 µM
- melting point: 231.1 to 231.8 °C
SMILES: CC(=NNC(N)=O)c1ccc(NC(=O)CN2CCOCC2)cc1 [34-8-1]
